Measured values as given in paper PMC9395488, “First-in-human study of IM156, a novel potent biguanide oxidative phosphorylation (OXPHOS) inhibitor, in patients with advanced solid tumors” (Investigational New Drugs, 2022).

System: patients with advanced solid tumors
Test: First-in-human phase 1 dose-escalation study: safety, DLTs, adverse events
Type: in vivo
Text: This multicenter first-in-human dose-escalation phase 1 study (clinicaltrials.gov identifier: NCT03272256) was designed to determine the MTD or RP2D and to evaluate the safety and tolerability of IM156. Secondary endpoints included PK characteristics, efficacy assessment (objective response rate [ORR], disease control rate [DCR], duration of response [DoR] and progression-free survival [PFS]). Furthermore, exploratory objectives included identification and profiling of IM156 metabolites, evaluations of exploratory PD markers of IM156, and evaluations of any potential relationship between putative biomarkers and safety/efficacy parameters of IM156. The study was conducted in accordance with Good Clinical Practice, the International Council for Harmonisation, and guidelines governing clinical study conduct and the ethical principles originating from the Declaration of Helsinki. The study was approved by each Institutional Review Board and patients provided written informed consent. Patients were enrolled at three sites in South Korea.
The initial dose and schedule of IM156 was chosen based on animal toxicology studies. […] IM156 was administered in the fasted state, with no food for at least 2 h before and 1 h after dosing.
Three DLT-evaluable patients were enrolled at each dose level. If there were no DLTs or other prohibitive adverse events (AEs), the Safety Committee was allowed to recommend escalation to the next highest dose level. If 1 DLT occurred in the first 3 DLT-evaluable patients, enrollment in that cohort was expanded to an additional 3 DLT-evaluable patients; if ≥ 2 DLTs were reported in a cohort, that dose was considered above the MTD.
Safety was assessed through vital signs, weight, laboratory assessments, physical examinations, electrocardiogram, and reporting of AEs as graded by the National Cancer Institute’s Common Terminology Criteria for Adverse Events v4.03 (NCI-CTCAE).
DLTs were defined as the following AEs if they were attributed as related to IM156: asymptomatic grade 4 neutropenia lasting for ≥ 5 days; febrile neutropenia, regardless of grade; grade 4 thrombocytopenia or grade 3 thrombocytopenia with bleeding; any grade ≥ 3 non-hematologic AE (except grade 3 hypertension and grade 3 nausea, vomiting or diarrhea for which proper measures for prevention and treatment were not implemented, and alopecia); blood lactate levels > 5 mmol; grade ≥ 2 AE prohibiting dosing of IM156 for ≥ 21 continuous days except for alterations in serum calcium or phosphorus levels. The safety analysis includes all patients who received at least one dose of study drug.
The safety population was defined as all patients who received at least one dose of IM156. The PK population was not defined in the protocol but included all patients with sufficient PK data to perform adequate PK modeling. The efficacy population included all patients who underwent at least one tumor imaging assessment while receiving IM156. Safety was assessed using descriptive statistics (e.g., DLTs, AEs, laboratory tests, physical examination, 12-lead ECG). The incidence and number of events were reported for the DLTs observed in Cycle 1 per dose group. […] Adverse events and TRAEs were standardized with the System Organ Class and the Preferred Term using the Medical Dictionary for Regulatory Activities v23.0. In addition, TEAEs, serious adverse events (SAEs), TEAE severity, and TEAEs leading to withdrawal were presented by dose group. Efficacy data were to be presented by Waterfall and Swim Lane plots. Time to event endpoints (e.g., DoR, PFS) were determined using Kaplan–Meier estimations with the median value for each endpoint summarized.

Compound: NC(=Nc1ccc(OC(F)(F)F)cc1)N=C(N)N1CCCC1 [IM156]
- TEAE Purpura grade 2 (DL7 1200 mg orally daily (n=4)): 0
- TEAE Purpura grade 3 (DL7 1200 mg orally daily (n=4)): 0
- TEAE Purpura grade 4 (DL7 1200 mg orally daily (n=4)): 0
- TEAE Urinary retention grade 1 (DL7 1200 mg orally daily (n=4)): 0
- TEAE Urinary retention grade 2 (DL7 1200 mg orally daily (n=4)): 0
- TEAE Urinary retention grade 3 (DL7 1200 mg orally daily (n=4)): 0
- TEAE Urinary retention grade 4 (DL7 1200 mg orally daily (n=4)): 0
- TEAE Urinary tract disorder grade 1 (DL7 1200 mg orally daily (n=4)): 0
- TEAE Urinary tract disorder grade 2 (DL7 1200 mg orally daily (n=4)): 1
- TEAE Urinary tract disorder grade 3 (DL7 1200 mg orally daily (n=4)): 0
- TEAE Urinary tract disorder grade 4 (DL7 1200 mg orally daily (n=4)): 0
- TEAE Adrenal insufficiency grade 1 (Total): 0
- TEAE Adrenal insufficiency grade 2 (Total): 1
- TEAE Adrenal insufficiency grade 3 (Total): 0
- TEAE Adrenal insufficiency grade 4 (Total): 0
- TEAE Anaemia grade 1 (Total): 0
- TEAE Anaemia grade 2 (Total): 3
- TEAE Anaemia grade 3 (Total): 2
- TEAE Anaemia grade 4 (Total): 0
- TEAE Appendicitis perforated grade 1 (Total): 0
- TEAE Appendicitis perforated grade 2 (Total): 0
- TEAE Appendicitis perforated grade 3 (Total): 1
- TEAE Appendicitis perforated grade 4 (Total): 0
- TEAE Back pain grade 1 (Total): 0
- TEAE Back pain grade 2 (Total): 2
- TEAE Back pain grade 3 (Total): 0
- TEAE Back pain grade 4 (Total): 0
- TEAE Cystitis grade 1 (Total): 0
- TEAE Cystitis grade 2 (Total): 1
- TEAE Cystitis grade 3 (Total): 0
- TEAE Cystitis grade 4 (Total): 0
- TEAE Dry skin grade 1 (Total): 0
- TEAE Dry skin grade 2 (Total): 1
- TEAE Dry skin grade 3 (Total): 0
- TEAE Dry skin grade 4 (Total): 0
- TEAE Flank pain grade 1 (Total): 0
- TEAE Flank pain grade 2 (Total): 1
- TEAE Flank pain grade 3 (Total): 0
- TEAE Flank pain grade 4 (Total): 0
- TEAE Hypertension grade 1 (Total): 0
- TEAE Hypertension grade 2 (Total): 1
- TEAE Hypertension grade 3 (Total): 0
- TEAE Hypertension grade 4 (Total): 0
- TEAE Hypotension grade 1 (Total): 0
- TEAE Hypotension grade 2 (Total): 1
- TEAE Hypotension grade 3 (Total): 0
- TEAE Hypotension grade 4 (Total): 0
- TEAE Insomnia grade 1 (Total): 2
- TEAE Insomnia grade 2 (Total): 1
- TEAE Insomnia grade 3 (Total): 0
- TEAE Insomnia grade 4 (Total): 0
- TEAE Pain in extremity grade 1 (Total): 1
- TEAE Pain in extremity grade 2 (Total): 1
- TEAE Pain in extremity grade 3 (Total): 0
- TEAE Pain in extremity grade 4 (Total): 0
- TEAE Pruritus grade 1 (Total): 1
- TEAE Pruritus grade 2 (Total): 0
- TEAE Pruritus grade 3 (Total): 0
- TEAE Pruritus grade 4 (Total): 0
- TEAE Psychiatric disorders grade 1 (Total): 2
- TEAE Psychiatric disorders grade 2 (Total): 1
- TEAE Psychiatric disorders grade 3 (Total): 0
- TEAE Psychiatric disorders grade 4 (Total): 0
- TEAE Purpura grade 1 (Total): 1
- TEAE Purpura grade 2 (Total): 0
- TEAE Purpura grade 3 (Total): 0
- TEAE Purpura grade 4 (Total): 0
- TEAE Urinary retention grade 1 (Total): 0
- TEAE Urinary retention grade 2 (Total): 1
- TEAE Urinary retention grade 3 (Total): 0
- TEAE Urinary retention grade 4 (Total): 0
- TEAE Urinary tract disorder grade 1 (Total): 0
- TEAE Urinary tract disorder grade 2 (Total): 1
- TEAE Urinary tract disorder grade 3 (Total): 0
- TEAE Urinary tract disorder grade 4 (Total): 0
- TRAE Abdominal Pain, > G3 (patients) (Total, N = 22): 0
- TRAE Abdominal Pain, All grades (patients) (Total, N = 22): 2
- TRAE Blood Lactic Acid increased, > G3 (patients) (Total, N = 22): 0
- TRAE Blood Lactic Acid increased, All grades (patients) (Total, N = 22): 2
- TRAE Constipation, > G3 (patients) (Total, N = 22): 0
- TRAE Constipation, All grades (patients) (Total, N = 22): 2
- TRAE Decreased appetite, > G3 (patients) (Total, N = 22): 0
- TRAE Diarrhoea, > G3 (patients) (Total, N = 22): 0
- TRAE Diarrhoea, All grades (patients) (Total, N = 22): 10
- TRAE Fatigue, > G3 (patients) (Total, N = 22): 0
- TRAE Fatigue, All grades (patients) (Total, N = 22): 4
- TRAE Insomnia, > G3 (patients) (Total, N = 22): 0
- TRAE Insomnia, All grades (patients) (Total, N = 22): 2
- TRAE Nausea, > G3 (patients) (Total, N = 22): 3
- TRAE Nausea, All grades (patients) (Total, N = 22): 15
- TRAE Vomiting, > G3 (patients) (Total, N = 22): 0
- TRAE Vomiting, All grades (patients) (Total, N = 22): 9
- TEAE Abdominal discomfort, grade 1 (Total, all dose levels): 1
- TEAE Abdominal distension, grade 2 (Total, all dose levels): 1
- TEAE Abdominal pain upper, grade 2 (Total, all dose levels): 1
- TEAE Abdominal pain, grade 1 (Total, all dose levels): 2
- TEAE Abdominal pain, grade 2 (Total, all dose levels): 3
- TEAE Abdominal pain, grade 3 (Total, all dose levels): 1
- TEAE Akathisia, grade 2 (Total, all dose levels): 1
- TEAE Alanine aminotransferase increased, grade 1 (Total, all dose levels): 3
- TEAE Alanine aminotransferase increased, grade 3 (Total, all dose levels): 1
- TEAE Ascites, grade 1 (Total, all dose levels): 1
- TEAE Aspartate aminotransferase increased, grade 1 (Total, all dose levels): 2
- TEAE Aspartate aminotransferase increased, grade 2 (Total, all dose levels): 1
- TEAE Aspartate aminotransferase increased, grade 3 (Total, all dose levels): 1
- TEAE Asthenia, grade 1 (Total, all dose levels): 3
- TEAE Blood alkaline phosphatase increased, grade 2 (Total, all dose levels): 1
- TEAE Blood alkaline phosphatase increased, grade 3 (Total, all dose levels): 1
- TEAE Blood creatinine increased, grade 1 (Total, all dose levels): 3
- TEAE Blood lactic acid increased, grade 1 (Total, all dose levels): 2
- TEAE Chest pain, grade 1 (Total, all dose levels): 1
- TEAE Constipation, grade 1 (Total, all dose levels): 5
- TEAE Constipation, grade 2 (Total, all dose levels): 1
- TEAE Cough, grade 1 (Total, all dose levels): 3
- TEAE Decreased appetite, grade 1 (Total, all dose levels): 3
- TEAE Decreased appetite, grade 2 (Total, all dose levels): 1
- TEAE Diarrhoea, grade 1 (Total, all dose levels): 9
